# Test results published in publication PMC4468202, “Improved Visualization and Specific Binding for Metabotropic Glutamate Receptor Subtype 1 (mGluR1) Using [^11C]ITMM with Ultra-High Specific Activity in Small-Animal PET” (PLoS ONE, 2015).
# Biological target: mGluR1 (Rattus norvegicus, UniProt P23385)
# Experiment: Small-animal PET with [^11C]ITMM: time-activity curves, radioactive uptake (SUV) in brain regions
# Type: in vivo
# Set-up: from tissue; host or cells: living SD rat brain (in vivo PET)
# Method: Subsequently, a SD rat was secured in a custom-designed chamber and placed in a small-animal PET scanner (Inveon, Siemens Medical Solutions, Knoxville, TN, USA). Body temperature was maintained using a 40°C water circulation system (T/Pump TP401, Gaymar Industries, Orchard Park, NY, USA). A 24-gauge intravenous catheter (Terumo Medical Products, Tokyo, Japan) was placed in the tail vein of the rat for a bolus injection.
# A bolus (0.5 mL) of [^11C]ITMM with conventional or ultra-high SA was injected for 10 s via a catheter inserted in the tail vein. Dynamic emission scans in three-dimensional list mode were performed for 90 min (10 s x 12 frames, 20 s x 3 frames, 30 s x 3 frames, 60 s x 3 frames, 150 s x 3 frames, and 300 s x 15 frames). For counting radioactivity, blood samples were manually acquired at intervals of 10 s (0.05 mL for 50 s), 1-min intervals (0.05 mL for 5 min), and then at 10 (0.05 mL), 15 (0.2 mL), 30 (0.3 mL), 60 (0.4 mL), and 90 min (0.5 mL) after the PET scan started. For metabolite analysis, six samples of blood were obtained at 1 (0.02 mL), 5 (0.02 mL), 15 (0.05 mL), 30 (0.1 mL), 60 (0.2 mL), and 90 min (0.3 mL) after the injection. Blood samples were centrifuged at 13,000g at 4°C to separate the plasma. Levels of radioactivity in the whole blood and plasma were counted using a 1480 Wizard auto-gamma scintillation counter (Perkin-Elmer, Waltham, MA, USA). The radioactivity was corrected for decay.
# PET dynamic images were reconstructed with filtered back projection using a Hunning filter with a Nyquist cut-off of 0.5 cycle/pixel. PET/MRI fused images were acquired by PMOD version 3.4 (PMOD Technologies, Zurich, Switzerland). To generate the time-activity curves (TACs) of specified brain regions, volumes of interest (VOIs) were drawn encompassing the cerebellum, hippocampus, thalamus, striatum, cingulate cortex, substantia nigra, and pons. The radioactivity was decay-corrected to the injection time and is expressed as the standardized uptake value (SUV), which was normalized to the injected radioactivity and body weight. SUV was calculated according to the following formula: SUV = (radioactivity per milliliter tissue / injected radioactivity) × gram body weight.
# [1] = cingulate cortex, conventional SA
# [2] = cingulate cortex, ultra-high SA
# [3] = substantia nigra, conventional SA
# [4] = substantia nigra, ultra-high SA
# Chain of mGluR1 (P23385 19-1199): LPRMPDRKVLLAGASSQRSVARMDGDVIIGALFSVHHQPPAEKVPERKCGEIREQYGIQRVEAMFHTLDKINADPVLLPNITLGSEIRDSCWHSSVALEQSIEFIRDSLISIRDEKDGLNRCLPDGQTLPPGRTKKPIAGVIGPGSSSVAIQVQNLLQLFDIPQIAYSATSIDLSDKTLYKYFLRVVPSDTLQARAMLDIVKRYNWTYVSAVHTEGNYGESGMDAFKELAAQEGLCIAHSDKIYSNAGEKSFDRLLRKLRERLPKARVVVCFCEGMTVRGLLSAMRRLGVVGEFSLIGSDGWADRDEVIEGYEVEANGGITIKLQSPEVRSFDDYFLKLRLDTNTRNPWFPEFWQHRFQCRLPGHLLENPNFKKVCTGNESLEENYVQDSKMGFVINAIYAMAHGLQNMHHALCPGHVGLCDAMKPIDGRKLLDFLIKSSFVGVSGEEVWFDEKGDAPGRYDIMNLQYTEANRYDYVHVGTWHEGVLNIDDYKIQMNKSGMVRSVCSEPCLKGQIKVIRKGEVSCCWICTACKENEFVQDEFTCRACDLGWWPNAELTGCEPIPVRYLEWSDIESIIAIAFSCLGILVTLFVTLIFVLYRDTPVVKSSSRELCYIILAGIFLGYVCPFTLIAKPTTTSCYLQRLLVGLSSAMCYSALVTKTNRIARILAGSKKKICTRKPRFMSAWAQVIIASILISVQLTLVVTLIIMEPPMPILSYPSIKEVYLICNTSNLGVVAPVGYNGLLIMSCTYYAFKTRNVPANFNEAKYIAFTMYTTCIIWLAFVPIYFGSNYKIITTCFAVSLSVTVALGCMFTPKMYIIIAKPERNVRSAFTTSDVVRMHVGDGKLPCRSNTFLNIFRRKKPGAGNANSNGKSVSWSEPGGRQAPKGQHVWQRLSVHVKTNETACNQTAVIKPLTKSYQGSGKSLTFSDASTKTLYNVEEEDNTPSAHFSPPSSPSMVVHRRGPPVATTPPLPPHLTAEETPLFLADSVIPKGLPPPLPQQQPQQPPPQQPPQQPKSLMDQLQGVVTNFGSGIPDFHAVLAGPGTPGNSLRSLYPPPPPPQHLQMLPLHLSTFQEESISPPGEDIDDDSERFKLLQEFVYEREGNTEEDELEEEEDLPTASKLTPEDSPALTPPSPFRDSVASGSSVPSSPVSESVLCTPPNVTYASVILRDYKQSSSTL
compound,measurement,setting,value
"CC(C)Nc1cc(-c2csc(N(C)C(=O)c3ccc(O[11CH3])cc3)n2)ncn1 [[^11C]ITMM, N-[4-[6-(isopropylamino)pyrimidin-4-yl]-1,3-thiazol-2-yl]-4-[^11C]methoxy-N-methyl-benzamide]",AUC,"cerebellum, conventional SA",243.2 ± 9.2 SUV · min
same,maximum uptake,"cerebellum, conventional SA",3.0 SUV
same,AUC,"cerebellum, ultra-high SA",269.9 ± 15.8 SUV · min
same,maximum uptake,"cerebellum, ultra-high SA",3.4 SUV
same,AUC,[1],156.9 ± 5.3 SUV · min
same,maximum uptake,[1],2.0 SUV
same,AUC,[2],184.7 ± 11.1 SUV · min
same,maximum uptake,[2],2.3 SUV
same,AUC,"hippocampus, conventional SA",160.8 ± 4.6 SUV · min
same,maximum uptake,"hippocampus, conventional SA",2.0 SUV
same,AUC,"hippocampus, ultra-high SA",180.2 ± 10.9 SUV · min
same,maximum uptake,"hippocampus, ultra-high SA",2.2 SUV
same,AUC,"pons, conventional SA",56.0 ± 1.6 SUV · min
same,maximum uptake,"pons, conventional SA",0.9 SUV
same,AUC,"pons, ultra-high SA",62.7 ± 3.6 SUV · min
same,maximum uptake,"pons, ultra-high SA",0.9 SUV
same,AUC,"striatum, conventional SA",169.7 ± 6.0 SUV · min
same,maximum uptake,"striatum, conventional SA",2.1 SUV
same,AUC,"striatum, ultra-high SA",197.3 ± 11.1 SUV · min
same,maximum uptake,"striatum, ultra-high SA",2.4 SUV
same,AUC,[3],149.9 ± 6.7 SUV · min
same,maximum uptake,[3],1.8 SUV
same,AUC,[4],178.9 ± 10.8 SUV · min
same,maximum uptake,[4],2.2 SUV
same,AUC,"thalamus, conventional SA",188.4 ± 6.9 SUV · min
same,maximum uptake,"thalamus, conventional SA",2.3 SUV
same,AUC,"thalamus, ultra-high SA",214.2 ± 12.2 SUV · min
same,maximum uptake,"thalamus, ultra-high SA",2.6 SUV
same,delay of peak time of radioactivity,"ultra-high SA compared with conventional SA, brain regions",4 to 10 min
